Tests used:
cataract = details: Zigler et al., U.S. Pat. No. 6,001,853; cited from earlier work
lens epithelial cells = details: Mitchell et al. 1991; Krishna et al. 1991; cited from earlier work
[1] = test system: blue light-illuminated A2E-laden RPE (ARPE-19 cells); test: Protection against A2E-mediated blue light damage (MTT assay and two-color fluorescence cell death assay); assay type: cell-based
Text: The ability of Tempol-H to protect against A2E-mediated blue light damage was examined.
Materials and Methods: ARPE-19 cells that have accumulated A2E in culture were exposed to 430±20 nm light delivered from a halogen source. This wavelength of light is relevant since (i) the excitation maximum of A2E is approximately 430 nm, and (ii) light of this wavelength reaches the RPE in vivo while light of wavelengths longer than 400 nm are not absorbed by the cornea and lens. Cell death in blue light-illuminated A2E-laden RPE was compared with and without pre-treatment (24 hours) with Tempol-H. The loss of cell viability was quantified by: • 1. A calorimetric microtiter assay based on ability of healthy metabolically active cells to cleave the yellow tetrazolium salt MTT to purple formazan crystals. Cell viability was assessed 24 hours after blue light illumination. Triplicate wells were assayed in each of 2 experiments.
2. Two-color fluorescence assay in which the nuclei of all dead cells appear red due to staining by a membrane-impermeant dye (Dead Red nuclei acid stain, Molecular Probes) with the nuclei of all cells stained blue with DAPI. Cell viability was assessed 8 hours after blue light illumination. Replicates were assayed by counting cells within 5 microscopic fields within the area of illumination in each well and 3 wells were assayed per experiment. Data are based on 3 experiments.

[2] = test system: retinal S-antigen-induced experimental autoimmune uveoretinitis (EAU); details: rat model, after systemic injection; Zamir et al. 1999; cited from earlier work

Compound | anti-cataractogenic activity compared with the corresponding nitroxide (cataract) | protection of lens epithelial cells from oxidative damage (lens epithelial cells) | protection of blue light-illuminated A2E-laden RPE cells ([1]; 1 mM, FIG. 2) | protection against the death of A2E-laden RPE ([1]; blue light 430±20 nm, 24 hours pre-treatment, FIG. 1 and FIG. 2) | protection of blue light illuminated A2E-laden RPE cells ([1]; various concentrations, FIG. 1) | severity of EAU [2]
CC1(C)CC(O)CC(C)(C)N1O [Tempol-H] | better anti-cataractogenic composition than the corresponding nitroxide | afforded no such protection | protection | dose-dependent protection | protect | –
CC1(C)CC(O)CC(C)(C)N1[O] [tempol, 4-hydroxy-2,2,6,6,-tetramethylpiperidine-1-N-oxyl] | – | – | – | – | – | reduced the severity

— patent US20050130906A1, “Amelioration of macular degeneration and other ophthalmic diseases” (priority 2003, published 2005)
